Results as given in patent publication EP0752872B1, “NADH OXIDASE AS A TARGET IN DIAGNOSIS AND THERAPY” (Morré, D. James, priority 1994, dated 1995).

Tests used:
[1] = test system: plasma membrane NADH oxidase; assay: Spectrophotometric NADH oxidase assay, rat liver plasma membranes (normal cells); format: biochemical
Protocol: Purification of plasma membranes from rat liver. A 5000 x g pellet from the preparation of Golgi apparatus (Morré (1971) Meth. Enzymol. 22, 130-148) was the starting material. The fluffy layer which contains the Golgi apparatus fraction was mixed, withdrawn and excluded from the plasma membrane preparations. Cold 1 mM NaHCO3 (5 ml) was added to each tube and the friable yellow-brown upper part of the pellet was resuspended with a pen-brush, leaving the reddish tightly packed bottom part of the pellet undisturbed. The resuspended material was homogenized in aliquots of 5 ml each in a 30 ml stainless steel homogenizer (Duragrind) 20 times by hand. The homogenates were combined, diluted with cold 1 mM NaHCO3 (1:1 dilution), and centrifuged at 6000 x g in a HB rotor for 15 min. The supernatant was discarded and the pellet was used for the two-phase separation (Morré & Morré (1989) BioTechniques 7:946-958).
The two-phase system contained 6.4% (w/w) Dextran T-500 (Pharmacia), 6.4% (w/w) polyethylene glycol) 3350 (Fisher), and 5 mM potassium phosphate buffer (pH 7.2) (Morré & Morré, 1989, supra). The homogenate (1 g) was added to the two-phase system and the weight of the system was brought to 8 g with distilled water. The tubes were inverted vigorously for 40 times in the cold (4°C). The phases were separated by centrifugation at 750 rpm (150 x g) in a Sorvall HB 4 rotor for 5 min. The upper phases were carefully withdrawn with a pasteur pipette, divided in half and transferred into 40 ml plastic centrifuge tubes and diluted with cold 1 mM NaHCO3. The purified plasma membranes were collected by centrifugation at 10,000 x g in a HB rotor for 30 min. Plasma membrane pellets were resuspended in 50 mM Tris-Mes buffer (pH 7.2) and stored at -70°C. Proteins were determined using the bicinchoninic acid (BCA) assay (Smith et al. (1985) Anal. Biochem. […]: 76-85) with bovine serum albumin as standard.
(§1) Spectrophometric assay of NADH oxidase. NADH oxidase activity was determined as the disappearance of NADH measured at 340 nm in a reaction mixture containing 25 mM Tris-MES buffer (pH 7.2), 1 mM KCN to inhibit the low levels of contaminating mitochondrial oxidase activity, and 150 µM NADH at 37°C with constant stirring. Activity was measured using a Hitachi U3210 spectrophotometer with continuous recording over two intervals of 5 min each. A millimolar extinction coefficient of 6.22 was used to determine specific activity.

[2] = target: T1, plasma membrane NADH oxidase activity from RLT-N hepatoma (Rattus norvegicus, UniProt D3Z9Z5); assay: Spectrophotometric NADH oxidase assay, rat hepatoma plasma membranes; format: biochemical
T1 sequence (D3Z9Z5 1-606): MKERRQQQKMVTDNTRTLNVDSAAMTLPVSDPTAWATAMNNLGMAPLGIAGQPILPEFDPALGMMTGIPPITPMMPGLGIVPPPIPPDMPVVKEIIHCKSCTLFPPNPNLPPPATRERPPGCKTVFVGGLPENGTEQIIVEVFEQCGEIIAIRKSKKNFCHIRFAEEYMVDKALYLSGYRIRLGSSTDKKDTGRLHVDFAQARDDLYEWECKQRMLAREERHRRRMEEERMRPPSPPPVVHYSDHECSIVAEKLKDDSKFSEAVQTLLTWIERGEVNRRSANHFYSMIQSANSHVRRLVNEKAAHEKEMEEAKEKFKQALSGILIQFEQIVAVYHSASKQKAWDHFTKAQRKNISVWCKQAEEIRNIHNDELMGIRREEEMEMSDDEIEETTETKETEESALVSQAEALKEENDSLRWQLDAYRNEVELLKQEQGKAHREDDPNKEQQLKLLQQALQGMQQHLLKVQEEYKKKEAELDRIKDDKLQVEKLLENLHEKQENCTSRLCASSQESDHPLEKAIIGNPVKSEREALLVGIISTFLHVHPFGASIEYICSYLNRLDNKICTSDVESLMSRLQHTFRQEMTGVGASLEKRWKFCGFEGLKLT
Protocol: as §1

[3] = test system: NADH oxidase activity of plasma membranes of HL-60 cells; assay: NADH oxidase assay, HL-60 plasma membranes; format: biochemical, human
Protocol: as §1

[4] = test system: HL-60 cells; assay: Ascorbate radical assay of electron flow released from cells; format: cell-based, human; settings: 0.2 mM ascorbate
Protocol: Of particular interest is employing an electron acceptor in the assay for NADH oxidase, conveniently ascorbate radical, where one may follow the rate of disappearance of the ascorbate radical under the conditions of the assay. One can measure the reduction of ascorbate free radical at 265 nm employing a spectrophotometer as described by Winkler (1987) Biochim. et Biophys. Acta 925:258-264. One may use intact cells suspended in a convenient buffer medium containing ascorbate, incubating the cell suspension and then following the reduction of the ascorbate as described above. See, also, Alcain et al. (1991) Biochim. et Biophys. Acta 1073:380-385 and Navas et al. (1992) FEBS Letters 299:223-226.
Under these conditions, electron flow is inhibited by adriamycin at concentrations where growth is inhibited in adriamycin susceptible HL-60 cells, but not inhibited with adriamycin-resistant cells, where growth also is not inhibited. These inhibitions with susceptible cells were observed without perceptible lag. Also the response was observed without preincubation with adriamycin.

[5] = test system: NADH oxidase activity of serum; assay: NADH oxidation by rat serum samples; format: biochemical; settings: +0.25 µM adriamycin
Protocol: as §1

[6] = test system: circulating NADH oxidase in the serum; assay: NADH oxidase activity of human serum; format: biochemical; settings: adriamycin
Protocol: as §1

[7] = test system: HL-60 cells; assay: Growth of HL-60 cells in suspension; format: cell-based, human
[8] = test system: FIV-infected Crandall feline leukemia cells; assay: Growth of FIV-infected cells; format: cell-based; settings: Felis catus, read-out: concentration inhibiting growth
Protocol: (§2) The antisera were conjugated to adriamycin through an activated carboxyl of the antibody to the amine of adriamycin free base using 2-isobutoxyl-1-isobutoxycarbonyl-1,2-dihydroxyquinoline, where the antibody was bound to an Ag-BSA sepharose affinity column. The concentration of drug conjugated was determined spectroscopically and was tested initially at a concentration of 0.2 µM on the growth of FIV-infected and -uninfected Crandall feline leukemia cells.

[9] = test system: uninfected Crandall feline leukemia cells; assay: Growth of uninfected cells; format: cell-based; settings: Felis catus; normal cells; read-out: concentration inhibiting growth
Protocol: as §2

[10] = target: T2, NADH oxidase from HeLa cell plasma membranes (Homo sapiens, UniProt Q16206); assay: Spectrophotometric NADH oxidase assay, HeLa plasma membranes; format: biochemical; settings: HeLa plasma membranes
T2 sequence (Q16206 1-610): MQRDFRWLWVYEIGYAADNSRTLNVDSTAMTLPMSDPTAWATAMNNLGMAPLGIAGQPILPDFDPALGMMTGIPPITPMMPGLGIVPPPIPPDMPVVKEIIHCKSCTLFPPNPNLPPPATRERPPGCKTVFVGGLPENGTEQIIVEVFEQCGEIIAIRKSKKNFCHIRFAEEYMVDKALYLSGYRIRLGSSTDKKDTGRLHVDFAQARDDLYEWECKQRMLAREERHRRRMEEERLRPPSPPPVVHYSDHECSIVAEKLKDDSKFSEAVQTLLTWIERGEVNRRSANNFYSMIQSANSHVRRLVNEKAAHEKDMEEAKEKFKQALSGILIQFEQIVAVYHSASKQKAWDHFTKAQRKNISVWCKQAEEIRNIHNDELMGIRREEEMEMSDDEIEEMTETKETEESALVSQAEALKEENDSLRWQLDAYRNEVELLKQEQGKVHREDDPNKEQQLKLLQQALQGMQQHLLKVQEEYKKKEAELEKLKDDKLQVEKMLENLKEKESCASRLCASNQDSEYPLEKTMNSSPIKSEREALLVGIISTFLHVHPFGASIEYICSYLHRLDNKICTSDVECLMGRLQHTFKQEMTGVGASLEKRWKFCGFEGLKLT
Protocol: Purification of plasma membranes from HeLa cells. HeLa cells were grown as suspension cultures in minimum essential medium (MEM) supplemented with horse serum, diferric transferrin and heparin. Cells were collected by centrifugation for 6 to 15 min at 1,000 to 3,000 rpm. The cell pellets were resuspended in 0.2 mM EDTA in 1 mM NaHCO3 in an approximate ratio of 1 ml per 10^8 cells and incubated on ice for 10 to 30 min to swell the cells. Homogenization was with a Polytron Homogenizer for 30 to 40 sec at 10,500 rpm using a PT-PA 3012/23 or ST-probe in 7 to 8 ml aliquots. To estimate breakage, the cells are monitored by light microscopy before and after homogenization. […]
The homogenates were centrifuged for 10 min at 1,000 rpm (175 g) to remove unbroken cells and nuclei and the supernatant was centrifuged a second time at 1.4 x 10^6 g min (e.g. 1 h at 23,500 g) to prepare a plasma membrane enriched microsome fraction. […] The purity of the plasma membrane was determined to be > 90% by electron microscope morphometry. […]
Spectrophometric assay of NADH oxidase. NADH oxidase activity was determined as the disappearance of NADH measured at 340 nm in a reaction mixture containing 25 mM Tris-MES buffer (pH 7.2), 1 mM KCN to inhibit the low levels of contaminating mitochondrial oxidase activity, and 150 µM NADH at 37°C with constant stirring. […]

[11] = test system: plasma membrane NADH oxidase; settings: addition at 0.1 µM; normal rat liver plasma membrane vesicles; no addition 0.72 ± 0.06; cited from earlier work

COc1cccc2c1C(=O)c1c(O)c3c(c(O)c1C2=O)C[C@@](O)(C(=O)CO)C[C@@H]3O[C@H]1C[C@H](N)[C@H](O)[C@H](C)O1 [adriamycin]
inhibition of growth factor-stimulated NADH oxidase activity ([1]; 0.1 µM adriamycin, activity stimulated by epidermal growth factor (EGF)): inhibited completely | inhibition of NADH oxidase activity ([1]; 0.1 µM adriamycin, liver plasma membranes): uninhibited | IC50 ([1]; plasma membranes from rat liver, normal cells, read-out: ED50 for inhibition of NADH oxidase activity): ~7 µM | inhibition at 0.1 µM ([2]; 0.1 µM adriamycin, hepatoma plasma membranes): 40% | inhibition of NADH oxidase activity (in words) ([3]; adriamycin-resistant HL-60 cells): not inhibited | inhibition of NADH oxidase activity (in words) ([3]; normal, adriamycin-susceptible HL-60 cells): inhibited | inhibition of electron flow (in words) ([4]; adriamycin susceptible HL-60 cells): inhibited | inhibition of electron flow (in words) ([4]; adriamycin-resistant cells): not inhibited | Relative rates of NADH oxidation ([5]; serum from normal rats, no adriamycin 1.7 ± 0.1): 1.75 ± 0.05 | Relative rates of NADH oxidation ([5]; serum from rats bearing an RLT-28 tumor, no adriamycin 1.0 ± 0.1): 0.35 ± 0.05 | effect on change in absorbance (in words) ([6]; sera from 12 normal individuals): consistently stimulated | effect on activity (in words) ([6]; sera from the 18 cancer patients): inhibited with 17 of the samples and unchanged in one | inhibition of growth (in words) ([7]; HL-60 cells, adriamycin susceptible, not differentiated): inhibited | inhibition of growth (in words) ([7]; adriamycin-resistant cells): not inhibited | minimal effective concentration [8]: ≥ 10 µM | minimal effective concentration [9]: ≥ 10 µM

CCCCCCCCCC[C@H](O)[C@H]1CC[C@H]([C@H]2CC[C@H]([C@H](O)CCCCCCCCCC[C@@H](O)CC3=C[C@H](C)OC3=O)O2)O1 [bullatacin]
inhibition of NADH oxidase activity (in words) [10]: inhibition

simalikalactone D [similikalactone D]
inhibition of NADH oxidase activity (in words) ([2]; final concentration of 0.4 µM prepared in DMSO, equivalent DMSO without effect): inhibited

C=C1/C(=C\C=C2/CCC[C@]3(C)[C@@H]([C@H](C)CCCC(C)(C)O)CC[C@@H]23)C[C@@H](O)C[C@@H]1O [Calcitrol]
NADH oxidase [11]: 0.16 ± 0.04 nmoles/min/mg protein
